From paper PMC6376162, “HEXIM1 Peptide Exhibits Antimicrobial Activity Against Antibiotic Resistant Bacteria Through Guidance of Cell Penetrating Peptide” (Frontiers in Microbiology, 2019)

Tested on: bacterial translation (E. coli lysate)
Assay: In vitro protein synthesis assay (RTS 100 E. coli HY Kit, GFP, Western blot)
Assay type: biochemical, Escherichia coli
Conditions: 10 μM streptomycin, RTS with 5 μg GFP mRNA, 30°C, 6 h; positive control
Experimental: The method to study the effect of peptide treatment on in vitro expression of protein was adapted from previous study ([Taniguchi et al., 2016]). RTS^TM 100 E. coli HY Kit (biotechrabbit) was used as a cell-free rapid translation system (RTS) to express green fluorescent protein (GFP) with or without peptide treatment. Streptomycin (Sigma-Aldrich), an antibiotic functioning as an inhibitor of bacterial translation, was used as a positive control. Reaction mixture was prepared as described in the product manual. For the negative control, the remaining 10 μl was topped up with nuclease-free water while for the other reactions, the 10 μl consists of 5 μg GFP mRNA and either nuclease-free water or the indicated treatment (100 μM Pen, Pen-BR, Pen-RRR, CapM2 or 10 μM Streptomycin). Reaction was incubated at 30°C for 6 h before being analyzed with Western blot for the protein level of GFP. To obtain GFP mRNA, control GFP expression vector was first linearized using ApaLI restriction enzyme (New England Biolabs) and then separated via agarose gel electrophoresis. Fragment containing the linearized GFP expression vector was retrieved using FavorPrep GEL Purification Kit (FAVORGEN Biotech Corp.) and subsequently used as the template for MEGAscript^TM T7 Transcription Kit (Thermo Fisher Scientific) to generate GFP mRNA. […]

## [H]/N=C(/N)N[C@H]1[C@H](O)[C@@H](O)[C@H](O[C@@H]2O[C@@H](C)[C@](O)(C=O)[C@H]2O[C@@H]2O[C@@H](CO)[C@H](O)[C@@H](O)[C@@H]2NC)[C@@H](N/C(N)=N\[H])[C@@H]1O [streptomycin, Streptomycin]
  synthesis of GFP protein (Western blot): significant inhibition
